From ChEMBL document CHEMBL1128775, “Specific affinity labeling of opioid receptors in rat brain by S-activated sulfhydryldihydromorphine analogs” (Bioorg Med Chem Lett, 1995)

What was measured:
Assay type in all cases: tissue-based
[1] = biological target: T1, Delta-type opioid receptor (Rattus norvegicus, UniProt P33533); test: Compound was evaluated for its binding affinity to Opioid receptor delta 1 in rat brain
Mu-type opioid receptor [2] = biological target: T2, Mu-type opioid receptor (Rattus norvegicus, UniProt P33535); test: Compound was evaluated for its binding affinity to mu opioid receptors in rat brain
T2 sequence (P33535 whole entry): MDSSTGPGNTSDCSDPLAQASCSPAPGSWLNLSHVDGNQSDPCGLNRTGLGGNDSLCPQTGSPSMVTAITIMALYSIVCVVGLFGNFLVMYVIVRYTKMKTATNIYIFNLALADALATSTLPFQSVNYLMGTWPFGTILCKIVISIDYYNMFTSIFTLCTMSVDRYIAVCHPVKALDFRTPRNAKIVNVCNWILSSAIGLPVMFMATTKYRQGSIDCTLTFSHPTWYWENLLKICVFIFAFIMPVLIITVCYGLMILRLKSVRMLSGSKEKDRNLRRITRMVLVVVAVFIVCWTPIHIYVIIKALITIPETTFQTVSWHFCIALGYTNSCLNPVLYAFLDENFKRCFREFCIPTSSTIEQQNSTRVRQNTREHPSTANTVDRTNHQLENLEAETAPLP

Mu-type opioid receptor [3] = biological target: T2, Mu-type opioid receptor; test: Ability to displace [3H][D-Ala2,MePhe4,Gly-ol5]enkephalin ([3H]DAGO) from mu opioid receptors in rat brain
[4] = biological target: T1, Delta-type opioid receptor; test: Ability to displace [3H][D-Ser2,Leu5]enkephalin-Thr ([3H]DSLET) from Opioid receptor delta 1 in rat brain

T1 sequence (P33533 whole entry): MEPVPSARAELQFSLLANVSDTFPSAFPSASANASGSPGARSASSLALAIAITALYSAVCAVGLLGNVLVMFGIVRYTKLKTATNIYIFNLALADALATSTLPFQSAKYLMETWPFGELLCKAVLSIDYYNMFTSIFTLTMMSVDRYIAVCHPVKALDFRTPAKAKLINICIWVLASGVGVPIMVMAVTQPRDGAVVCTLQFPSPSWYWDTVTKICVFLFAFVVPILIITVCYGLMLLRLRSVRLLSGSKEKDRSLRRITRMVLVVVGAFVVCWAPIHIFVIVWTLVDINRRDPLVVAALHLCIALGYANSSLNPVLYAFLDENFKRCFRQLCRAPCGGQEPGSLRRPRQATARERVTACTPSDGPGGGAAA

Row | Compound | EC50 [1] [nM] | EC50 (Mu-type opioid receptor [2]) [nM] | IC50 (Mu-type opioid receptor [3]) [nM] | IC50 [4] [nM]
1 | CN1CC[C@]23c4c5ccc(O)c4O[C@H]2[C@@H](O)C[C@H](SSc2ccc([N+](=O)[O-])cn2)C3[C@H]1C5 (stereo partly drawn) | 1200 | 1700 | 58.1 | 67.9
2 | CN1CC[C@]23c4c5ccc(O)c4O[C@H]2[C@H](SSc2ccc([N+](=O)[O-])cn2)CCC3C1C5 (stereo partly drawn) | 402 | 58.1 | 31.1 | 206
